# Measurements reported in patent US20090035306A1 (KALYPSYS, INC., priority 2006, published 2009).
# Biological target: T1, human TGR5 (Homo sapiens, UniProt Q8TDU6)
# T1 construct: expressed in transfected cells
# T1 sequence (Q8TDU6 1-330): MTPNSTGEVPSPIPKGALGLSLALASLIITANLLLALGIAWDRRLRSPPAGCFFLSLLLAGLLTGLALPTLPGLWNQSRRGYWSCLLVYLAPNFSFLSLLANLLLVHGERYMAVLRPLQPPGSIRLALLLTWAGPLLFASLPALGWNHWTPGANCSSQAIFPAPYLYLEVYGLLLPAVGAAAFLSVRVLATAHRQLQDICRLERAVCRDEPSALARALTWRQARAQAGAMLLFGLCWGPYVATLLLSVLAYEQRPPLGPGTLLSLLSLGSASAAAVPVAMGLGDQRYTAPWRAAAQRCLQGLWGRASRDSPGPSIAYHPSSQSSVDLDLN
# Assay: cAMP production assay in HEK293 cells stably expressing TGR5 (LANCE TR-FRET)
# Format: cell-based
# Details: 30 minutes stimulation, read-out: cAMP Production in 293-TGR5 Cells EC50
# Experimental: HEK293 cells stably expressing TGR5 (HEK293-TGR5) were established by stably transfecting HEK-293 cells with an expression vector (pcDNA 3.1, Invetrogen) inserted with human TGR5 cDNA using Fugene6 (Roche, Indianapolis, Ind.) according to conventional methods. Cells were grown in DMEM (invitrogen, Carlsbad, Calif.) supplemented with 10% FBS, 1% penicillin/streptomycin under geneticin selection. The presence of TGR5 transcripts in these cells was confirmed using branched DNA (bDNA, Genospectra, Inc., Fremont Calif.) following the manufacturer's protocol and using specific probes for human TGR5. cAMP production assay was performed in high throughput 1536 well format using LANCE cAMP detection kit (Perkin Elmer Inc., Boston, Mass.) according to the manufacturer's protocol. Briefly, HEK293-TGR5 cells were harvested using non-enzymatic cell dissociation buffer (Invitrogen, Carlsbad, Calif.) and suspended in DMEM supplemented with 0.1% FBS at a density of 800,000 cells/ml. Alexa antibody was added to the cell suspension, and 4 ul of the mixture was dispensed in white opaque tissue culture treated Greiner 1536 well plates (USA Scientific, Inc., Ocala, Fla.). After an overnight incubation at 37 C in an atmosphere of 10% CO2 and 95% humidity, 1 ul of 5 mM IBMX (Sigma, St. Louis, Mo.) solution in DMEM was dispensed for a final concentration of 1 mM. Cells were then stimulated with test compounds for 30 minutes, after which time 5 ul of detection reagent was added and incubated for 1-7 hrs at room temperature. TR-FRET signal was detected using the Viewlux (Perkin Elmer Inc., Boston Mass.). EC50 values were determined using Graph Pad Prizm analysis (GraphPad Software, Inc). The EC50 values for a wide range of bile acids generated from this assay were in agreement with the values published in the scientific literature. […] The symbol (+) denotes an EC50 value of ≦10 μM while the symbol (−) denotes an EC50 value of >10 μM (see Table 1).
row,Compound,EC50 [µM]
1,"O=c1c2ccccc2nc(-c2cccs2)n1NCc1ccc(C(F)(F)F)cc1 [Example 87, 2-(thiophen-2-yl)-3-(4-(trifluoromethyl)benzylamino)quinazolin-4(3H)-one]",≤ 10
2,"O=c1c2ccc(C(F)(F)F)cc2nc(-c2ccccc2F)n1NCc1ccc(F)cc1F [Example 29, 3-(2,4-difluorobenzylamino)-2-(2-fluorophenyl)-7-(trifluoromethyl)quinazolin-4(3H)-one]",> 10
3,"COc1ccc(-c2nc3ccccc3c(=O)n2NCc2ccc(Br)cc2)cn1 [Example 116, 3-(4-bromobenzylamino)-2-(6-methoxypyridin-3-yl)quinazolin-4(3H)— one]",≤ 10
4,"O=c1c2ccccc2nc(C2CCCCC2)n1NCc1ccc(Cl)cc1 [Example 45, 3-(4-chlorobenzylamino)-2-cyclohexylquinazolin-4(3H)-one]",≤ 10
5,"COc1cc(-c2nc3ccccc3c(=O)n2NCc2ccc(Br)cc2)ccc1O [Example 99, 3-(4-bromobenzylamino)-2-(4-hydroxy-3-methoxyphenyl)quinazolin-4(3H)-one]",≤ 10
6,"O=c1c2ccccc2nc(-c2ccc(F)cc2)n1NCc1ccc(F)cc1F [Example 80, 3-(2,4-difluorobenzylamino)-2-(4-fluorophenyl)quinazolin-4(3H)-one]",≤ 10
7,"Cc1ccc(-c2nc3ccccc3c(=O)n2NCc2ccc(Br)cc2)cc1Cl [Example 109, 3-(4-bromobenzylamino)-2-(3-chloro-4-methylphenyl)quinazolin-4(3H)-one]",≤ 10
8,"Cc1cc(-c2nc3ccccc3c(=O)n2NCc2ccc(Br)cc2)ccc1F [Example 54, 3-(4-bromobenzylamino)-2-(4-fluoro-3-methylphenyl)quinazolin-4(3H)-one]",≤ 10
9,"O=c1c2ccccc2nc(-c2ccc3c(c2)OCO3)n1NCc1ccc(Br)cc1 [Example 63, 2-(benzo[d][1,3]dioxol-5-yl)-3-(4-bromobenzylamino)quinazolin-4(3H)-one]",≤ 10
10,"O=c1c2ccccc2nc(-c2ccc(F)c(F)c2)n1NCc1ccc(Br)cc1 [Example 92, 3-(4-bromobenzylamino)-2-(3,4-difluorophenyl)quinazolin-4(3H)-one]",≤ 10
11,"COc1cccc2c(=O)n(NCc3ccc(Br)cc3)c(-c3ccc(F)cc3)nc12 [Example 76, 3-(4-Bromo-benzylamino)-2-(4-fluoro-phenyl)-8-methoxy-3H-quinazolin-4-one]",≤ 10
12,"COc1cccc2c(=O)n(NCc3ccc(Cl)cc3)c(-c3ccc(F)cc3)nc12 [Example 77, 3-(4-Chloro-benzylamino)-2-(4-fluoro-phenyl)-8-methoxy-3H-quinazolin-4-one]",≤ 10
13,"O=c1c2ccccc2nc(-c2ccsc2)n1NCc1ccc(Br)cc1 [Example 89, 3-(4-bromobenzylamino)-2-(thiophen-3-yl)quinazolin-4(3H)-one]",≤ 10
14,"Cc1ccc2c(=O)n(NCc3ccc(C(F)(F)F)cc3)c(-c3ccc(F)cc3)nc2c1 [Example 82, 2-(4-fluorophenyl)-7-methyl-3-(4 (trifluoromethyl)benzylamino)quinazolin-4(3H)-one]",> 10
15,"O=c1c2ccccc2nc(CCc2ccccc2)n1NCc1ccc(F)cc1F [Example 16, 3-(2,4-difluorobenzylamino)-2-phenethylquinazolin-4(3H)-one]",≤ 10
16,"O=c1c2ccccc2nc(C2CCCCC2)n1NCc1ccc(Br)cc1 [Example 44, 3-(4-bromobenzylamino)-2-cyclohexylquinazolin-4(3H)-one]",≤ 10
17,"O=c1c2ccccc2nc(-c2ccccc2F)n1NCc1ccc(Br)cc1 [Example 5, 3-(4-bromobenzylamino)-2-(2-fluorophenyl)quinazolin-4(3H)-one]",≤ 10
18,"COc1cccc(-c2nc3ccccc3c(=O)n2NCc2ccc(Br)cc2)c1 [Example 55, 3-(4-bromobenzylamino)-2-(3-methoxyphenyl)quinazolin-4(3H)-one]",≤ 10
19,"CN(C)c1ccc(-c2nc3ccccc3c(=O)n2NCc2ccc(Br)cc2)cc1 [Example 42, 3-(4-bromobenzylamino)-2-(4-(dimethylamino)phenyl)quinazolin-4(3H)-one]",> 10

row,Compound,EC50 [µM]
1,"O=c1c2ccccc2nc(-c2ccco2)n1N(Cc1ccc(Br)cc1)Cc1ccc(Br)cc1 [Example 41, 3-(bis(4-bromobenzyl)amino)-2-(furan-2-yl)quinazolin-4(3H)-one]",≤ 10
2,"N#Cc1ccc(CNn2c(-c3ccc(F)cc3)nc3ccccc3c2=O)cc1 [Example 32, 4-((2-(4-fluorophenyl)-4-oxoquinazolin-3(4H)-ylamino)methyl)benzonitrile]",≤ 10
3,"COc1cc(-c2nc3ccccc3c(=O)n2NCc2ccc(Br)cc2)ccc1C [Example 65, 3-(4-bromobenzylamino)-2-(3-methoxy-4-methylphenyl)quinazolin-4(3H)-one]",≤ 10
4,"O=c1c2ccccc2nc(-c2ccccc2F)n1NCc1ccc(F)c(F)c1 [Example 14, 3-(3,4-difluorobenzylamino)-2-(2-fluorophenyl)quinazolin-4(3H)-one]",≤ 10
5,"Cc1cccc2c(=O)n(NCc3ccc(Cl)cc3)c(-c3ccc(F)cc3)nc12 [Example 71, 3-(4-chlorobenzylamino)-2-(4-fluorophenyl)-8-methylquinazolin-4(3H)-one]",≤ 10
6,"O=c1c2ccccc2nc(-c2ccc(Cl)cc2)n1NCc1ccc(Br)cc1 [Example 47, 3-(4-bromobenzylamino)-2-(4-chlorophenyl)quinazolin-4(3H)-one]",≤ 10
7,"CCN(Cc1ccc(Br)cc1)n1c(-c2ccc(F)cc2)nc2ccccc2c1=O [Example 93, 3-((4-bromobenzyl)(ethyl)amino)-2-(4-fluorophenyl)quinazolin-4(3H)-one]",≤ 10
8,"O=c1c2cc(F)ccc2nc(-c2cccc(F)c2)n1NCc1ccc(Br)cc1 [Example 106, 3-(4-bromobenzylamino)-6-fluoro-2-(3-fluorophenyl)quinazolin-4(3H)-one]",≤ 10
9,"O=c1c2ccccc2nc(-c2ccccc2F)n1NCc1ccc(F)cc1F [Example 12, 3-(2,4-difluorobenzylamino)-2-(2-fluorophenyl)quinazolin-4(3H)-one]",≤ 10
10,"Cc1ccc(CNn2c(-c3ccccc3F)nc3ccccc3c2=O)cc1 [Example 22, 2-(2-fluorophenyl)-3-(4-methylbenzylamino)quinazolin-4(3H)-one]",≤ 10
11,"O=c1c2ccc(F)cc2nc(-c2ccc(F)cc2)n1NCc1ccc(Cl)cc1 [Example 108, 3-(4-chlorobenzylamino)-7-fluoro-2-(4-fluorophenyl)quinazolin-4(3H)-one]",≤ 10
12,"O=c1c2ccccc2nc(-c2cccc(Cl)c2)n1NCc1ccc(C(F)(F)F)cc1 [Example 49, 2-(3-chlorophenyl)-3-(4-(trifluoromethyl)benzylamino)quinazolin-4(3H)-one]",≤ 10
13,"Cc1cccc2nc(-c3ccc(F)cc3)n(NCc3ccc(Br)cc3)c(=O)c12 [Example 111, 3-(4-bromobenzylamino)-2-(4-fluorophenyl)-5-methylquinazolin-4(3H)-one]",≤ 10
14,"O=c1c2ccccc2nc(-c2ccccc2F)n1NCc1ccc(C(F)(F)F)cc1 [Example 17, 2-(2-fluorophenyl)-3-(4-(trifluoromethyl)benzylamino)quinazolin-4(3H)-one]",≤ 10
15,"COc1ccccc1-c1nc2ccccc2c(=O)n1NCc1ccc(Br)cc1 [Example 19, 3-(4-bromobenzylamino)-2-(2-methoxyphenyl)quinazolin-4(3H)-one]",> 10
16,"O=c1c2ccc(C(F)(F)F)cc2nc(-c2ccccc2F)n1NCc1ccc(Br)cc1 [Example 28, 3-(4-bromobenzylamino)-2-(2-fluorophenyl)-7-(trifluoromethyl)quinazolin-4(3H)-one]",> 10
17,"O=c1c2ccccc2nc(-c2ccccn2)n1NCc1ccc(Br)cc1 [Example 31, 3-(4-bromobenzylamino)-2-(pyridin-2-yl)quinazolin-4(3H)-one]",≤ 10
18,"Cc1cccc2c(=O)n(NCc3ccc(Br)cc3)c(-c3ccc(F)cc3)nc12 [Example 70, 3-(4-bromobenzylamino)-2-(4-fluorophenyl)-8-methylquinazolin-4(3H)-one]",≤ 10
19,"O=c1c2ccc(C(F)(F)F)cc2nc(-c2ccccc2F)n1NCc1ccc(Cl)cc1 [Example 30, 3-(4-chlorobenzylamino)-2-(2-fluorophenyl)-7-(trifluoromethyl)quinazolin-4(3H)-one]",> 10
